# Data taken from patent US20250170127A1, “RE-SENSITIZING MULTIDRUG-RESISTANT (MDR) GRAM-NEGATIVE BACTERIA TO COLISTIN USING IONOPHORES” (The Regents of the University of Colorado, a body corporate, priority 2022, published 2025).
# Where two headings read alike, the source gives them in different places.
# Assays:
# E. coli AR-0349 = experiment: MICs of a panel of 9 antibiotics with and without compound 3; type: cell-based; conditions: for INT (S-R interpretation): CLSI 2021, M100, Ed 31; for MIC: antibiotic alone, multidrug-resistant E. coli; for MIC (+3): in the presence of 1 μg/mL of compound 3
# E. coli AR-0493 [1] = experiment: MIC, CLSI broth microdilution, substance alone; type: cell-based
# Experimental: A MDR E. coli strain AR-0493 (a.k.a., ATCC BAA-3170) was obtained from the CDC and FDA Antibiotic Resistance Bank and used for the initial screen. […] Considering the difficulties on the discovery of novel antimicrobial reagents against Gram-negative bacteria, we chose to screen the fragment-based library of 3,200 compounds from TimTec (Tampa, FL). […] The screen used a modified broth microdilution assay.
# These 10 compounds were tested for their MICs and minimum re-sensitizing concentrations (MRCs) in the presence colistin at 2 μg/mL in E. coli AR-0493. […] To evaluate their toxicity in mammalian cells, the present inventors treated human epithelial adenocarcinoma HeLa cells with each compound at a wide range of concentrations. […]
# (§1) General Methods. MDR strains E. coli AR-0493, AR-0346, and AR-0538, Salmonella Enteritidis AR-0496, Salmonella Typhimurium AR-0635, K. pneumoniae AR-0497, A. baumannii AR-0300 and AR-0310 were all obtained from the CDC & FDA Antibiotic Resistance Isolate Bank. E. coli K-12 was a gift from the Copley lab (Department of MCD Biology, University of Colorado Boulder). HeLa cells were purchased from the ATCC. All bacterial strains were grown on trypticase soy agar supplemented with 5% sheep blood (BAP). Bacteria were then cultured in Luria-Bertani (LB) medium at 35° C. until they achieve the log phase before screening or antimicrobial testing using CAMHB media. MIC, MRC, and checkerboard analyses and mammalian growth inhibition analyses in Hela cells were performed as described previously. More details are given in Supporting information.
# E. coli AR-0493 [2] = experiment: Minimum re-sensitizing concentration (MRC) in the presence of colistin; type: cell-based; conditions: in the presence of 2 μg/mL colistin, E. coli AR-0493
# Experimental: These 10 compounds were tested for their MICs and minimum re-sensitizing concentrations (MRCs) in the presence colistin at 2 μg/mL in E. coli AR-0493.
# The present inventors further conducted MRC screens of selected compounds from groups 2-5 in AR-0493. Compound were tested against AR-0493 with compound X+2 μg/mL Colistin.
# All compounds were tested for their respective minimum resensitizing concentrations (MRCs) for colistin against E. coli. AR0493, a MDR strain from CDC and FDA Antibiotic Resistance Bank. […] For the symmetrical bisanilino series, 7a-p, electron-donating alkyl and alkoxy groups (entries 7a-g, Table 5) at various positions of the phenyl rings were investigated. […] Three asymmetric bisanilino analogs (7q-s, Table 5) were synthesized based on the SARs of the monoanilino analogs 8a-p (vide infra).
# as §1
# HeLa cells = experiment: in vitro; type: cell-based, human
# Experimental: These 10 compounds were tested for their MICs and minimum re-sensitizing concentrations (MRCs) in the presence colistin at 2 μg/mL in E. coli AR-0493. […] To evaluate their toxicity in mammalian cells, the present inventors treated human epithelial adenocarcinoma HeLa cells with each compound at a wide range of concentrations.
# To evaluate the mammalian toxicity of these analogs, Applicants tested them in cell viability assay using human cervical adenocarcinoma HeLa cells. Their respective half maximal growth inhibition concentration (GI50) was calculated using KaleidaGraph. The selectivity index (SI) for each compound was also calculated as the ratio of their GI50 and MRC. […] Therefore, Applicants selected two bisanilino analogs, 7l and 7m, that bear chlorines at the meta- and para-positions, respectively, of the phenyl groups for further characterization studies. […]. […] Their mammalian toxicities were also evaluated, and SIs calculated. […] Applicants we next explored the scope of analogs 71 and 7m their colistin-potentiating activity in 8 different MDR Gram negative bacteria with diverse genetic backgrounds and resistance mechanisms (Table 7). All strains were obtained from CDC and FDA Antibiotic Resistance Bank. For example, E. coli AR-0493 and K. pneumoniae AR-0497 carry the plasmid that contains the most prevalent mcr-1 gene. E. coli AR-0538, Salmonella Typhimurium AR-0539 and AR-0635 contain the mcr-2, 3, and 4 genes, respectively. These genes encode the phosphoethanolamine transferase, which was originated form the chromosome of A. baumannii, such as AR-0310. […]. A. baumannii AR-0310 appears more sensitive to these two compounds and the MICs of colistin was reduced to 0.25 μg/mL.
# as §1
# [3] = Escherichia coli, AR0349, read-out: MIC
molecule,measurement,setting,value
CC[C@H]1OC(=O)[C@H](C)[C@@H](O[C@H]2C[C@@](C)(OC)[C@@H](O)[C@H](C)O2)[C@H](C)[C@@H](O[C@@H]2O[C@H](C)C[C@H](N(C)C)[C@H]2O)[C@](C)(O)C[C@@H](C)CN(C)[C@H](C)[C@@H](O)[C@]1(C)O [Azithromycin],INT (S-R interpretation),E. coli AR-0349,R
same,MIC,E. coli AR-0349; [3],> 64 µg/mL
same,MIC (+3),E. coli AR-0349,>64 µg/mL
CC(C)(O/N=C(\C(=O)N[C@@H]1C(=O)N2C(C(=O)[O-])=C(C[n+]3ccccc3)CS[C@H]12)c1csc(N)n1)C(=O)O [Ceftazidime],INT (S-R interpretation),E. coli AR-0349,R
same,MIC,E. coli AR-0349; [3],> 64 µg/mL
same,MIC (+3),E. coli AR-0349,>64 µg/mL
O=C(O)c1cn(C2CC2)c2cc(N3CCNCC3)c(F)cc2c1=O [Ciprofloxacin],MIC,E. coli AR-0349; [3],32 µg/mL
same,MIC (+3),E. coli AR-0349,32 µg/mL
Cc1cccc(Nc2nc3nonc3nc2O)c1 [Compound 4],MIC,E. coli AR-0493 [1],did not show either antimicrobial or RMA activity
same,MRC (minimum re-sensitizing concentration),E. coli AR-0493 [2],did not show either antimicrobial or RMA activity
c1ccc(Nc2nc3nonc3nc2Nc2ccccc2)cc1 [Compound 7a],GI50,HeLa cells,4.4 µg/mL
same,MIC,E. coli AR-0493 [1],>64 µg/mL
same,MRC (minimum re-sensitizing concentration),E. coli AR-0493 [2],0.5 µg/mL
Cc1ccccc1Nc1nc2nonc2nc1Nc1ccccc1C [Compound 7b],MRC (minimum re-sensitizing concentration),E. coli AR-0493 [2],8 µg/mL
Cc1cccc(Nc2nc3nonc3nc2Nc2cccc(C)c2)c1 [Compound 7c],GI50,HeLa cells,1.5 µg/mL
same,MIC,E. coli AR-0493 [1],>64 µg/mL
same,MRC (minimum re-sensitizing concentration),E. coli AR-0493 [2],0.5 µg/mL
Cc1ccc(Nc2nc3nonc3nc2Nc2ccc(C)cc2)cc1 [Compound 7d],GI50,HeLa cells,1.1 µg/mL
same,MIC,E. coli AR-0493 [1],>64 µg/mL
same,MRC (minimum re-sensitizing concentration),E. coli AR-0493 [2],0.5 µg/mL
COc1ccccc1Nc1nc2nonc2nc1Nc1ccccc1OC [Compound 7e],MRC (minimum re-sensitizing concentration),E. coli AR-0493 [2],>64 µg/mL
COc1cccc(Nc2nc3nonc3nc2Nc2cccc(OC)c2)c1 [Compound 7f],MRC (minimum re-sensitizing concentration),E. coli AR-0493 [2],2 µg/mL
COc1ccc(Nc2nc3nonc3nc2Nc2ccc(OC)cc2)cc1 [Compound 7g],MRC (minimum re-sensitizing concentration),E. coli AR-0493 [2],>64 µg/mL
Fc1cccc(Nc2nc3nonc3nc2Nc2cccc(F)c2)c1 [Compound 7i],GI50,HeLa cells,20 µg/mL
same,MIC,E. coli AR-0493 [1],>64 µg/mL
same,MRC (minimum re-sensitizing concentration),E. coli AR-0493 [2],0.5 µg/mL
Fc1ccc(Nc2nc3nonc3nc2Nc2ccc(F)cc2)cc1 [Compound 7j],GI50,HeLa cells,9.4 µg/mL
same,MIC,E. coli AR-0493 [1],>64 µg/mL
same,MRC (minimum re-sensitizing concentration),E. coli AR-0493 [2],0.5 µg/mL
Clc1ccccc1Nc1nc2nonc2nc1Nc1ccccc1Cl [Compound 7k],MRC (minimum re-sensitizing concentration),E. coli AR-0493 [2],8 µg/mL
FC(F)(F)Oc1ccccc1Nc1nc2nonc2nc1Nc1ccccc1OC(F)(F)F [Compound 7n],MRC (minimum re-sensitizing concentration),E. coli AR-0493 [2],>64 µg/mL
FC(F)(F)Oc1cccc(Nc2nc3nonc3nc2Nc2cccc(OC(F)(F)F)c2)c1 [Compound 7o],GI50,HeLa cells,43 µg/mL
same,MIC,E. coli AR-0493 [1],>64 µg/mL
same,MRC (minimum re-sensitizing concentration),E. coli AR-0493 [2],0.25 µg/mL
same,MRC (minimum re-sensitizing concentration),E. coli AR-0493 [2]; listed as 57o,0.25 µg/mL
FC(F)(F)Oc1cccc(Nc2nc3nonc3nc2Nc2ccccc2)c1 [Compound 7q],MRC (minimum re-sensitizing concentration),E. coli AR-0493 [2],1 µg/mL
COc1ccccc1Nc1nc2nonc2nc1Nc1cccc(OC(F)(F)F)c1 [Compound 7s],MRC (minimum re-sensitizing concentration),E. coli AR-0493 [2],>64 µg/mL
Oc1nc2nonc2nc1Nc1ccccc1 [Compound 8a],MRC (minimum re-sensitizing concentration),E. coli AR-0493 [2],>64 µg/mL
Cc1ccccc1Nc1nc2nonc2nc1O [Compound 8b],MRC (minimum re-sensitizing concentration),E. coli AR-0493 [2],64 µg/mL
Cc1cccc(Nc2nc3nonc3nc2O)c1 [Compound 8c],MRC (minimum re-sensitizing concentration),E. coli AR-0493 [2]; listed as 8c (2),8 µg/mL
Cc1ccc(Nc2nc3nonc3nc2O)cc1 [Compound 8d],MRC (minimum re-sensitizing concentration),E. coli AR-0493 [2],64 µg/mL
COc1ccccc1Nc1nc2nonc2nc1O [Compound 8e],MIC,E. coli AR-0493 [1],>64 µg/mL
same,MRC (minimum re-sensitizing concentration),E. coli AR-0493 [2],4 µg/mL
COc1cccc(Nc2nc3nonc3nc2O)c1 [Compound 8f],MRC (minimum re-sensitizing concentration),E. coli AR-0493 [2],16 µg/mL
COc1ccc(Nc2nc3nonc3nc2O)cc1 [Compound 8g],MRC (minimum re-sensitizing concentration),E. coli AR-0493 [2],>64 µg/mL
Oc1nc2nonc2nc1Nc1ccccc1F [Compound 8h],MRC (minimum re-sensitizing concentration),E. coli AR-0493 [2],64 µg/mL
Oc1nc2nonc2nc1Nc1cccc(F)c1 [Compound 8i],MRC (minimum re-sensitizing concentration),E. coli AR-0493 [2],64 µg/mL
Oc1nc2nonc2nc1Nc1ccc(F)cc1 [Compound 8j],MRC (minimum re-sensitizing concentration),E. coli AR-0493 [2],32 µg/mL
Oc1nc2nonc2nc1Nc1ccccc1Cl [Compound 8k],MRC (minimum re-sensitizing concentration),E. coli AR-0493 [2],16 µg/mL
Oc1nc2nonc2nc1Nc1cccc(Cl)c1 [Compound 8l],MRC (minimum re-sensitizing concentration),E. coli AR-0493 [2],16 µg/mL
Oc1nc2nonc2nc1Nc1ccc(Cl)cc1 [Compound 8m],MRC (minimum re-sensitizing concentration),E. coli AR-0493 [2],32 µg/mL
Oc1nc2nonc2nc1Nc1ccccc1OC(F)(F)F [Compound 8n],MRC (minimum re-sensitizing concentration),E. coli AR-0493 [2],>64 µg/mL
C[C@@H](O)[C@H]1C(=O)N2C(C(=O)O)=C(S[C@@H]3CN[C@H](C(=O)N(C)C)C3)[C@H](C)[C@H]12 [Meropenem],INT (S-R interpretation),E. coli AR-0349,S
same,MIC,E. coli AR-0349; [3],0.25 µg/mL
same,MIC (+3),E. coli AR-0349,0.25 µg/mL
CO[C@H]1/C=C/O[C@@]2(C)Oc3c(C)c(O)c4c(O)c(c(/C=N/N5CCN(C)CC5)c(O)c4c3C2=O)NC(=O)/C(C)=C\C=C\[C@H](C)[C@H](O)[C@@H](C)[C@@H](O)[C@@H](C)[C@H](OC(C)=O)[C@@H]1C [Rifampicin],INT (S-R interpretation),E. coli AR-0349,R
same,MIC,E. coli AR-0349; [3],16 µg/mL
same,MIC (+3),E. coli AR-0349,16 µg/mL
"Cc1cccc(Nc2nc3nonc3nc2Cl)c1 [ST024336, reference compound]",GI50,"HeLa cells; HeLa cells, 24 hours",10 µg/mL
same,MRC (minimum re-sensitizing concentration),E. coli AR-0493 [2],2 µg/mL
same,MRC (minimum re-sensitizing concentration),E. coli AR-0493 [2]; listed as 1,> 64 µg/mL
CN(C)[C@@H]1C(O)=C(C(N)=O)C(=O)[C@@]2(O)C(O)=C3C(=O)c4c(O)cccc4[C@@](C)(O)[C@H]3C[C@@H]12 [Tetracycline],INT (S-R interpretation),E. coli AR-0349,R
same,MIC,E. coli AR-0349; [3],> 64 µg/mL
same,MIC (+3),E. coli AR-0349,>64 µg/mL
Gentamicin,INT (S-R interpretation),E. coli AR-0349,S
same,MIC,E. coli AR-0349,0.5 µg/mL
same,MIC (+3),E. coli AR-0349,0.5 µg/mL
Polymyxin B,INT (S-R interpretation),E. coli AR-0349,R
same,MIC,E. coli AR-0349,16 µg/mL
same,fold of potentiation,E. coli AR-0349; by 1 μg/mL of compound 3,16 fold
same,MIC (+3),E. coli AR-0349,1 µg/mL
